Results: PubChem BioAssay AID179 (DTP/NCI, 2004)
Active and inactive are the calls of the source.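 How the source made its calls: active means compounds giving half or more protection of infected cells from virus-caused growth loss, again on retest; inactive means the rest.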

Test system: CEM cells HIV-1 protection, formazan growth assay
Assay: NCI AIDS Antiviral Assay
Conditions: for IC50: measured here: growth of uninfected CEM cells
Outline: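 Category rules: moderately active means at least 50% protection on retest, and confirmed active means 100% protection reproducibly. The underlying data came from a formazan growth assay in HIV-1-infected CEM cells.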

Compound | EC50 [µM] | IC50 [µM] | outcome
CC1OC2=N[C@@H]1C(=O)N[C@@H](C(C)C)C1=N[C@H](C(=O)N[C@@H](C(C)C)C3=N[C@H](C(=O)N[C@@H](C(C)C)C4=N[C@H](C(=O)N[C@H]2C(C)C)C(C)O4)C(C)O3)C(C)O1 (stereo partly drawn) | > 200 | > 200 | 
CCCCCC(=O)Nc1n[nH]nc1C(N)=O | > 200 | > 200 | 
COc1ccc2nc3cc([N+](=O)[O-])ccc3c(Nc3ccc(S(=O)(=O)Nc4ncccn4)cc3)c2c1 | > 200 | 102 | 
Nc1c(-c2ccccc2)oc2ccccc2c1=O | > 200 | > 200 | 
O=C(O)CSc1n[nH]c(Cc2ccccc2)n1 | > 1000 | > 1000 | 
Cc1cc(O)c(C(=O)CC2(O)C(=O)Nc3c(Cl)cc(Cl)cc32)c(=O)o1 (stereo not drawn) | > 468 | > 468 | 
C=CC(C#CC#CCCCCCCC)O[Si](C)(C)C(C)(C)C (stereo not drawn) |  |  | inactive
Cc1cc(=O)[nH]c(NN2C(Cl)C(=O)C2c2cccc([N+](=O)[O-])c2)n1 (stereo not drawn) | > 53.7 | 15.5 | 
O=c1[nH]c(Nc2cccc(Br)c2)nc2nc[nH]c12 | > 200 | > 100 | 
CC(=O)Nc1c(S(=O)(=O)c2ccccc2)c(C)c(C)n1CCN(C)C | > 200 | > 200 | 
N=C(N)c1ccc(OCCCOc2ccc(C(=N)N)cc2)cc1 | > 200 | 17 | 
O=C(NO)c1ccc(C(=O)NO)c(Br)c1 |  |  | inactive
COc1ccc(/C=C2\SC(=S)N(C=C3C(=O)NC(=S)NC3=O)C2=O)cc1OC | > 200 | 29.5 | 
Cc1cc2nc(NS(=O)(=O)c3cc(C)c(Cl)cc3S)[nH]c2cc1C | > 200 | > 200 | 
COC(=O)NC12CC3CC(C(C)O1)C2N(Cc1ccccc1)C3 (stereo not drawn) | > 200 | > 200 | 
Cc1ccc(NC(=O)NC(=O)c2ccc([N+](=O)[O-])cc2[N+](=O)[O-])cc1Oc1ncc(Cl)cn1 |  |  | inactive
CC(C)(Oc1ccccc1)C(=O)Sc1c(-c2ccccc2)c(=O)n(-c2ccccc2)c(=S)n1-c1ccccc1 | > 200 | 1.35 | 
Cc1ccc(CS(=O)C(Cl)(Cl)c2ccc(C)cc2)cc1 (stereo not drawn) | > 41.7 | 15.5 | 
CCOP(=O)(OCC)C(Cc1ccc(OC)cc1)NC(=O)C(CC(C)C)NC(=O)OCc1ccccc1 (stereo not drawn) | > 126 | 8.91 | 
CCCCNc1nc(NC2OCC(OC(C)=O)C(OC(C)=O)C2OC(C)=O)c(N=O)c(=O)n1C (stereo not drawn) | > 200 | > 200 | 

Compound | EC50 [µM] | IC50 [µM] | outcome
COc1ccc(N=Nc2c(N)nn3cc4c(nc23)CCCCC4)cc1 | > 200 | 34.7 | 
CN(CCN)[C@H](CSSC[C@@H](c1ccccc1O)N(C)CCN)c1ccccc1O | > 200 | 17.8 | 
CC1=C(C#N)C(C#N)(C#N)C(NN(C)C)C1 (stereo not drawn) | > 200 | 3.8 | 
O=C(Nc1ccc(/C=C/c2ccc(NC(=O)c3ccc4cccnc4c3O)cc2S(=O)(=O)O)c(S(=O)(=O)O)c1)c1ccc2cccnc2c1O | > 100 | 60.3 | 
CC#N.CC#N.COC(=O)[C@@H]1CN(C(=O)Cc2ccccc2)C(=O)[N-]1.COC(=O)[C@@H]1CN(C(=O)Cc2ccccc2)C(=O)[N-]1.COC(=O)[C@@H]1CN(C(=O)Cc2ccccc2)C(=O)[N-]1.COC(=O)[C@@H]1CN(C(=O)Cc2ccccc2)C(=O)[N-]1.[Rh+2].[Rh+2] | > 12 | 11 | 
COC[C@@H](N=CN1CCc2ccccc2C1)c1ccccc1 | > 324 | > 324 | 
CC1(CC(=O)O)OC2CCCCCC2O1 (stereo not drawn) (tested in a mixture with another compound) |  |  | inactive
CN(C)CCCNC(=O)c1cc(NC(=O)c2cc(NC(=O)c3cc(NC(=O)c4ccc(C(=O)Nc5cc(C(=O)Nc6cc(C(=O)Nc7cc(C(=O)NCCCN(C)C)n(C)c7)n(C)c6)n(C)c5)cc4)cn3C)cn2C)cn1C | > 100 | > 100 | 
CCSC1=N/C(=C/c2ccccc2O)C(Cl)=N1 | 50.1 | > 200 | 
Cn1cc(NC(=O)Nc2cc(C(=O)Nc3cc(C(=O)Nc4cc(P(=O)(O)O)c5cccc(P(=O)(O)O)c5c4)n(C)c3)n(C)c2)cc1C(=O)Nc1cc(C(=O)Nc2cc(P(=O)(O)O)c3cccc(P(=O)(O)O)c3c2)n(C)c1 | 89.1 | 126 | 
COc1cc(/C=C2\C(=O)N(c3cc(Cl)ccc3Cl)C(c3ccccc3)S2(=O)=O)cc(OC)c1OC (stereo not drawn) | > 200 | 120 | 
Cn1c2ccccc2c2ncc3[nH]c4ccccc4c3c21 |  |  | inactive
CCOC(=O)NC(=O)c1cn(C(CC)COC(=O)NCCCCCCNC(=O)OCC(CC)n2cc(C(=O)NC(=O)OCC)c(=O)[nH]c2=O)c(=O)[nH]c1=O (stereo not drawn) |  |  | inactive
Cc1cn(C2CCC(COP(=O)(OCOC(=O)C(C)(C)C)OCOC(=O)C(C)(C)C)O2)c(=O)[nH]c1=O (stereo not drawn) |  |  | active
CCOC(=O)CN(c1scc(-c2ccccc2)c1C(=O)OCC)S(=O)(=O)c1ccc(C)cc1 | > 200 | 9.33 | 
O=C1N(C2CCCCC2)CC2(Cc3ccccc3)c3ccccc3NC12O (stereo not drawn) | > 20 | > 20 | 
O=C1[C@@H]2C(c3ccccn3)=NO[C@@H]2C(=O)N1c1ccc(Cc2ccc(N3C(=O)[C@H]4C(c5ccccn5)=NO[C@H]4C3=O)cc2)cc1 | > 8.71 | > 8.71 | 
O=[N+]([O-])c1cc(Cl)ccc1S(=O)(=O)N1CCCc2cc(Cl)ccc21 | > 200 | 30.2 | 
CC1=C(C(=O)CC(=O)C(=O)Nc2cccc(Cl)c2C)Sc2ccccc2N1 | > 64.6 | > 64.6 | 
COC(=O)/C=C\C(C#N)(C#N)N=Cc1cccc(OC)c1 | > 20 | 1.26 | 
